Source: patent US7511042B2, “Triazole compounds” (Boehringer Ingelheim Pharmaceuticals, Inc., priority 2003, dated 2009)

melting point	Compound
181 to 182 °C (dec.)	COc1cnc(C(C)(C)C)cc1NC(=O)c1ccc(C)c(-n2cc(C(=O)NCC(C)(C)C)nn2)c1 [Example 12, 1-[5-(2-tert-Butyl-5-methoxy-pyridin-4-ylcarbamoyl)-2-methyl-phenyl]-1H-1,2,3-triazole-4-carboxylic acid (2,2-dimethyl-propyl)-amide]
74 to 78 °C (dec.)	Cc1ccc(C(=O)Nc2cc(C(C)(C)C)ccc2[S+](C)[O-])cc1-n1cc(C(=O)NCC(C)(C)C)nn1 (centres unmarked) [Example 13, 1-[5-(5-tert-Butyl-2-methanesulfinyl-phenylcarbamoyl)-2-methyl-phenyl]-1H-1,2,3-triazole-4-carboxylic acid (2,2-dimethyl-propyl)-amide]
